According to PubChem BioAssay AID192 (DTP/NCI, 2004):
Where “and” joins values, the source holds several entries; their conditions need not be identical. Identical values can stand only once. Inconclusive results and toxic doses are left out. Rule for the calls: active = survival T/C of 150% or more; inactive = T/C below 125% in these data.

Tested on: BDF1 mice, B16 melanoma ip, median survival T/C
Assay: NCI In Vivo Anticancer Drug Screen. Data for tumor model B16 Melanoma (intraperitoneal) in B6D2F1 (BDF1) mice
Conditions: endpoint: median survival time, higher = longer survival
Description: The antitumor activity of compounds was measured in mice bearing transplantable tumors. Survival or tumor size were measured and the results are expressed as the measurement made in the treated group (T) divided by the measurement made in the vehicle treated control group (C). The tumor model used in this assay is B16 Melanoma (intraperitoneal) in B6D2F1 (BDF1) mice

[1] = dose: 100.0 mg/kg/injection, schedule: Q01DX009 (ip), vehicle: Klucel (hydroxypropylcellulose) (HPC)
[2] = dose: 200.0 mg/kg/injection, schedule: Q01DX009 (ip), vehicle: Klucel (hydroxypropylcellulose) (HPC)
[3] = dose: 400.0 mg/kg/injection, schedule: Q01DX009 (ip), vehicle: Klucel (hydroxypropylcellulose) (HPC)
[4] = dose: 50.0 mg/kg/injection, schedule: Q01DX009 (ip), vehicle: Klucel (hydroxypropylcellulose) (HPC)
[5] = dose: 5.0 mg/kg/injection, schedule: Q01DX009 (ip), vehicle: saline with Tween-80
[6] = dose: 10.0 mg/kg/injection, schedule: Q01DX009 (ip), vehicle: saline with Tween-80
[7] = dose: 20.0 mg/kg/injection, schedule: Q01DX009 (ip), vehicle: saline with Tween-80
[8] = dose: 100.0 mg/kg/injection, schedule: Q04DX003 (ip), vehicle: Klucel (hydroxypropylcellulose) (HPC)
[9] = dose: 200.0 mg/kg/injection, schedule: Q04DX003 (ip), vehicle: Klucel (hydroxypropylcellulose) (HPC)
[10] = dose: 25.0 mg/kg/injection, schedule: Q01DX009 (ip), vehicle: saline
[11] = dose: 50.0 mg/kg/injection, schedule: Q01DX009 (ip), vehicle: saline
[12] = dose: 100.0 mg/kg/injection, schedule: Q01DX009 (ip), vehicle: saline
[13] = dose: 200.0 mg/kg/injection, schedule: Q01DX009 (ip), vehicle: saline
[14] = dose: 400.0 mg/kg/injection, schedule: Q01DX009 (ip), vehicle: saline
[15] = dose: 50.0 mg/kg/injection, schedule: Q01DX009 (ip), vehicle: saline with Tween-80
[16] = dose: 100.0 mg/kg/injection, schedule: Q01DX009 (ip), vehicle: saline with Tween-80
[17] = dose: 200.0 mg/kg/injection, schedule: Q01DX009 (ip), vehicle: saline with Tween-80
[18] = dose: 6.25 mg/kg/injection, schedule: Q01DX009 (ip), vehicle: saline with Tween-80
[19] = dose: 12.5 mg/kg/injection, schedule: Q01DX009 (ip), vehicle: saline with Tween-80

Measured: T/C

Clc1ccccc1C=Nc1ccc2c(c1)Cc1ccccc1-2
inactive: [1] 96 % of control | [2] 96 % of control | [3] 87 % of control

FC(F)(F)c1ccc(Cl)c(NC2=NCCCS2)c1
inactive: [4] 96 % of control | [1] 89 % of control

Cc1noc2c1ncc[n+]2[O-]
inactive: [5] 108 % of control | [6] 119 % of control | [7] 116 % of control

BrCCCC1CCCCC1
inactive: [4] 92 % of control | [1] 100 % of control | [2] 92 % of control

C#CC1(OCC2CN(c3ccccc3)C(=O)O2)CCCCC1 (centres undefined)
inactive: dose: 25.0 mg/kg/injection, schedule: Q01DX009 (ip), vehicle: Klucel (hydroxypropylcellulose) (HPC) 93 % of control | [4] 95 % of control | [1] 95 % of control | dose: 100.0 mg/kg/injection, schedule: Q04DX003 (ip), vehicle: saline with Tween-80 97 % of control | [2] 102 % of control | dose: 200.0 mg/kg/injection, schedule: Q04DX003 (ip), vehicle: saline with Tween-80 102 % of control | [3] 91 % of control | dose: 400.0 mg/kg/injection, schedule: Q04DX003 (ip), vehicle: saline with Tween-80 100 % of control

Cc1ccc(NC(=O)Nc2cccc(Cl)c2)cc1C
inactive: [1] 86 % of control | [8] 92 % of control | [2] 86 % of control | [9] 92 % of control | [3] 86 % of control | dose: 400.0 mg/kg/injection, schedule: Q04DX003 (ip), vehicle: Klucel (hydroxypropylcellulose) (HPC) 92 % of control

Cc1cc(OCc2nc(N)nc(N)c2-c2ccc(Cl)c(Cl)c2)ccc1NS(=O)(=O)c1cccc(S(=O)(=O)F)c1
inactive: dose: 117.0 mg/kg/injection, schedule: Q04DX003 (ip), vehicle: saline 122 % of control | dose: 400.0 mg/kg/injection, schedule: Q04DX003 (ip), vehicle: saline 117 % of control

O=[N+]([O-])c1ccc(N2CCCC2)c([N+](=O)[O-])c1
inactive: [1] 93 % of control | [2] 100 % of control | [3] 100 % of control

CN1CCC=C(C(=O)N2c3ccccc3CCc3ccccc32)C1
inactive: [10] 97 % of control | [11] 87 % of control | [12] 91 % of control

CN1CCC=C(C(=O)N2c3ccccc3Sc3ccccc32)C1
inactive: [10] 102 % of control | [11] 96 % of control

CC1(C(=O)O)CCC2(C)CCC3(C)C(=CC(=O)C4C5(C)CCC(OC6OC(C(=O)O)C(O)C(O)C6OC6OC(C(=O)O)C(O)C(O)C6O)C(C)(C)C5CCC43C)C2C1 (centres undefined)
inactive: [12] 106 % of control | [13] 101 % of control | [14] 102 % of control

COc1ccc(COC=O)cc1
inactive: [1] 100 % of control | [2] 109 % of control | [3] 106 % of control

CCCC1OC(=O)C(C)O1 (centres undefined)
inactive: [4] 92 % of control | [1] 89 % of control

CC(=O)Nc1cccc([N+](=O)[O-])c1
inactive: [15] 109 % of control | [16] 97 % of control | [17] 97 % of control

COc1ccccc1NC(=O)Oc1c(C(C)C)cccc1C(C)C
inactive: [1] 93 % of control | [2] 90 % of control | [3] 93 % of control

COc1ccc2c(=O)cc(-c3ccccc3)[nH]c2c1
inactive: dose: 12.5 mg/kg/injection, schedule: Q01DX009 (ip), vehicle: saline 114 % of control | [10] 117 % of control | [11] 120 % of control

NC(=O)N1OCC(N)C1=O (centres undefined)
inactive: [11] 95 % of control | [12] 103 % of control | [13] 95 % of control

O=CNC(CSC(=O)c1ccccc1)C(=O)O (centres undefined)
inactive: [4] 100 % of control | [1] 100 % of control | [2] 94 % of control

CC(C)C(=O)OCC1OC(n2cnc3c(=S)nc(N)[nH]c32)C(OC(=O)C(C)C)C1OC(=O)C(C)C (centres undefined)
inactive: dose: 3.13 mg/kg/injection, schedule: Q01DX009 (ip), vehicle: saline with Tween-80 114 % of control | [18] 108 % of control | [19] 110 % of control

COc1ccc(NC(=O)Oc2ccccc2Cc2ccccc2)cc1
inactive: [4] 96 % of control | dose: 50.0 mg/kg/injection, schedule: Q04DX003 (ip), vehicle: Klucel (hydroxypropylcellulose) (HPC) 96 % of control | [1] 93 % of control | [8] 96 % of control | [2] 100 % of control | [9] 93 % of control

CC(=N\O)/C(C)=N/O.CC(=N\O)/C(C)=N/O.[Pd]
inactive: dose: 0.75 mg/kg/injection, schedule: Q01DX009 (ip), vehicle: Klucel (hydroxypropylcellulose) (HPC) 96 % of control | dose: 1.57 mg/kg/injection, schedule: Q01DX009 (ip), vehicle: Klucel (hydroxypropylcellulose) (HPC) 95 % of control | dose: 3.13 mg/kg/injection, schedule: Q01DX009 (ip), vehicle: Klucel (hydroxypropylcellulose) (HPC) 96 % of control | dose: 6.25 mg/kg/injection, schedule: Q01DX009 (ip), vehicle: Klucel (hydroxypropylcellulose) (HPC) 94 % of control

COC(=O)C1=C(N)CCc2ccccc21
inactive: [16] 90 % of control | [17] 95 % of control

C=C(C)C(=O)OC1CCC2(C)C(CCC3C2CCC2(C)C(c4ccc(=O)oc4)CC4OC432)C1 (centres undefined)
inactive: dose: 1.25 mg/kg/injection, schedule: Q01DX009 (ip), vehicle: saline with Tween-80 100 % of control | dose: 2.5 mg/kg/injection, schedule: Q01DX009 (ip), vehicle: saline with Tween-80 94 % of control | [5] 96 % of control | [6] 107 % of control | [7] 102 % of control

Nc1cc2nc3ccccc3sc-2cc1=O
inactive: [15] 93 % of control | [16] 98 % of control | [17] 94 % of control

COc1ccc(NCc2ccc(C)cc2)cc1
inactive: [1] 91 % of control | [2] 94 % of control | [3] 91 % of control

CCCCCCCCCCCCCCCC[N+](C)(C)c1nc(Cl)nc(Cl)n1
inactive: dose: 2.0 mg/kg/injection, schedule: Q01DX009 (ip), vehicle: saline with Tween-80 97 % of control | dose: 4.0 mg/kg/injection, schedule: Q01DX009 (ip), vehicle: saline with Tween-80 100 % of control | dose: 8.0 mg/kg/injection, schedule: Q01DX009 (ip), vehicle: saline with Tween-80 95 % of control

CCC/C=C(/CC(=O)O)C(=O)O
inactive: dose: 75.0 mg/kg/injection, schedule: Q04DX003 (ip), vehicle: saline with Tween-80 100 % of control

O=C(NC1CCc2ccccc21)c1ccccc1 (centres undefined)
inactive: [18] 100 % of control | [19] 92 % of control | dose: 25.0 mg/kg/injection, schedule: Q01DX009 (ip), vehicle: saline with Tween-80 91 % of control and 95 % of control | [16] 90 % of control

COc1cc2c(c(OC)c1OC)-c1ccc(OC)c(=O)cc1[C@@H](NC(=O)CF)CC2
inactive: dose: 0.04 mg/kg/injection, schedule: Q01DX009 (ip), vehicle: saline with Tween-80 116 % of control | dose: 0.09 mg/kg/injection, schedule: Q01DX009 (ip), vehicle: saline with Tween-80 118 % of control

COCCN1CCC(C)(CO)C1 (centres undefined)
inactive: [12] 106 % of control | [13] 100 % of control | [14] 93 % of control

C=C(C)C12CC(COC(=O)c3ccccc3)C34OC5(OC1C3C1OC1(CO)C(O)C1(O)C(OC(=O)c3ccccc3)C(C)C(C(C)CCCCCCC5O)C14)O2 (centres undefined)
inactive: dose: 3.8 micrograms/kg/injection, schedule: Q01DX009 (ip), vehicle: saline with Tween-80 93 % of control | dose: 7.5 micrograms/kg/injection, schedule: Q01DX009 (ip), vehicle: saline with Tween-80 97 % of control
